Experiments:
Conditions in all cases: 72 h
[1] = system: Calu-3; assay: relative viability EC50 (midpoint between 100% and the lowest measured viability); higher = less toxic
[2] = system: HepG2; assay: as above
[3] = system: U2OS; assay: as above
[4] = system: Vero E6; assay: as above
[5] = system: Caco-2; assay: as above
[6] = system: Calu-3; assay: drug sensitivity score (DSS) for viability; higher = more toxic; extreme values may be limits of the assay
[7] = system: HepG2; assay: as above
[8] = system: U2OS; assay: as above
[9] = system: Vero E6; assay: as above
[10] = system: Caco-2; assay: as above
[11] = system: Calu-3; assay: cell viability relative to DMSO; higher = less toxic
[12] = system: HepG2; assay: as above
[13] = system: U2OS; assay: as above
[14] = system: Vero E6; assay: as above
[15] = system: Caco-2; assay: as above

Compound	relative viability EC50 [1]	relative viability EC50 [2]	relative viability EC50 [3]	relative viability EC50 [4]	relative viability EC50 [5]	drug sensitivity score [6]	drug sensitivity score [7]	drug sensitivity score [8]	drug sensitivity score [9]	drug sensitivity score [10]	cell viability ([11]; 1 nM)	cell viability ([11]; 10 nM)	cell viability ([11]; 100 nM)	cell viability ([11]; 1000 nM)	cell viability ([11]; 10000 nM)	cell viability ([12]; 1 nM)	cell viability ([12]; 10 nM)	cell viability ([12]; 100 nM)	cell viability ([12]; 1000 nM)	cell viability ([12]; 10000 nM)	cell viability ([13]; 1 nM)	cell viability ([13]; 10 nM)	cell viability ([13]; 100 nM)	cell viability ([13]; 1000 nM)	cell viability ([13]; 10000 nM)	cell viability ([14]; 1 nM)	cell viability ([14]; 10 nM)	cell viability ([14]; 100 nM)	cell viability ([14]; 1000 nM)	cell viability ([14]; 10000 nM)	cell viability ([15]; 1 nM)	cell viability ([15]; 10 nM)	cell viability ([15]; 100 nM)	cell viability ([15]; 1000 nM)	cell viability ([15]; 10000 nM)
NC(=O)c1ccc(-c2nc(-c3ccccn3)c(-c3ccc4c(c3)OCO4)[nH]2)cc1	> 10 µM	> 10 µM	> 10 µM	> 10 µM	> 10 µM	0	0.7	0	0	0	92.2%	95%	91.9%	110%	103%	107%	93.6%	103%	96%	83.9%	91.2%	96.6%	96%	97.1%	92.4%	98.3%	92.4%	96.1%	97.8%	105%	89.3%	106%	92.5%	106%	101%
C[C@]12CC[C@@H]3c4ccc(OC(=O)N(CCCl)CCCl)cc4CC[C@H]3[C@@H]1CC[C@@H]2OP(=O)(O)O [estramustine-phosphate]	> 10 µM	> 10 µM	> 10 µM	> 10 µM	> 10 µM	0	0	0	0	0	99%	105%	90.2%	99.9%	116%	98.3%	90.8%	101%	95.4%	104%	102%	100%	98.7%	97.3%	99.1%	95.1%	103%	94.9%	107%	92.8%	115%	89.9%	92.2%	94.3%	94.9%
CNC(=O)O[C@H]1COc2ccc(N3CCN(C4COC4)CC3)cc2[C@@H]1NC(=O)c1ccc(F)cc1	> 10 µM	> 10 µM	> 10 µM	> 10 µM	> 10 µM	0	0	0	0	0	106%	88.4%	92.1%	95.4%	101%	94.9%	101%	94.4%	105%	91.8%	96.6%	101%	95.7%	104%	102%	101%	98.2%	106%	104%	94.1%	90.5%	103%	89.9%	101%	98.5%
C[C@H](NC(=O)CNC(=O)c1cccc(Cl)c1)c1ccccc1	> 10 µM	> 10 µM	> 10 µM	> 10 µM	> 10 µM	0	0	0	0	0	91.2%	95.1%	96.3%	108%	90.8%	102%	107%	98.8%	98.6%	101%	101%	96.8%	99.7%	98.1%	101%	103%	96.2%	96.4%	104%	99.1%	100%	102%	96.6%	100%	102%
O=C1CC2(CCCC2)CC(=O)N1CCCCNC[C@H]1COc2ccccc2O1 (racemic)	> 10 µM	> 10 µM	> 10 µM	> 10 µM	> 10 µM	0.3	0	0	0	0.3	96.9%	103%	96.9%	94.2%	85.3%	99%	112%	106%	101%	110%	104%	102%	101%	104%	97.8%	103%	101%	101%	97%	98.6%	97.8%	98.2%	93.8%	98.3%	86%
CCC1=C(C)CN(C(=O)NCCc2ccc(S(=O)(=O)NC(=O)N[C@H]3CC[C@H](C)CC3)cc2)C1=O [glimepiride]	> 10 µM	> 10 µM	> 10 µM	> 10 µM	> 10 µM	0	0	0	0	1.8	98.6%	104%	91.7%	104%	98.6%	83.1%	90.7%	104%	98.7%	104%	98.9%	99.2%	97.7%	99.8%	92.1%	111%	110%	105%	91.9%	95.3%	87.2%	94.3%	98.9%	91.4%	76.2%
c1ccc(Cn2c(-c3ccc(OC[C@H](C4CCNCC4)n4c(-c5ccccc5)nc5ccccc54)cc3)nc3ccccc32)cc1 [deltarasin]	3.51 µM	3.62 µM	3.14 µM	2.8 µM	2.85 µM	5.1	4.9	5.6	6.2	6	105%	102%	102%	107%	0.1%	99.7%	100%	95%	110%	-0.3%	99.9%	93.9%	98.7%	99.9%	-0.3%	92.9%	99.3%	94%	95.4%	-0.1%	98.6%	87.8%	104%	95.9%	2.1%
O=C1CC[C@@H](C(=O)N2CSC[C@H]2C(=O)O)N1 [pidotimod]	> 10 µM	> 10 µM	> 10 µM	> 10 µM	> 10 µM	0	0	0	0	0	97.4%	104%	97.3%	96%	102%	98.4%	101%	101%	105%	106%	93.9%	93.3%	101%	99.9%	106%	97.8%	101%	94.8%	101%	107%	102%	91.6%	106%	102%	92.7%
CC(=O)OCC(=O)[C@@]1(O)CC[C@H]2[C@@H]3CCC4=CC(=O)CC[C@]4(C)[C@H]3C(=O)C[C@@]21C [cortisone-acetate]	> 10 µM	> 10 µM	> 10 µM	> 10 µM	> 10 µM	0	0	0	0	0	93.2%	98.5%	98.9%	106%	101%	90%	110%	104%	110%	101%	99.6%	98.1%	97%	101%	95.1%	87.9%	97.5%	96.4%	101%	99.3%	108%	95.4%	101%	96.3%	103%
CCn1nc(C)c2c1C(c1ccccc1)=NCC(=O)N2 [ripazepam]	> 10 µM	> 10 µM	> 10 µM	> 10 µM	> 10 µM	0	0	0	0	0	97.4%	102%	95.6%	109%	95.8%	106%	100%	98.9%	92.2%	113%	96.4%	99.1%	93.2%	102%	98.2%	95.6%	99.9%	104%	100%	97.1%	96.9%	103%	104%	101%	124%
Oc1cc2c(cc1O)[C@H](Cc1cccc3ccccc13)NCC2 [CKD-712]	> 10 µM	> 10 µM	> 10 µM	> 10 µM	> 10 µM	0	0.3	0	0	0	105%	95%	108%	105%	102%	106%	101%	97.9%	99.7%	84.8%	101%	93.8%	98.6%	112%	96.6%	102%	100%	100%	99%	95.7%	88.6%	94.2%	105%	98.4%	92.4%
O=c1cc(N2CCOCC2)nc2c3ccccc3ccn12 [compound-401]	> 10 µM	> 10 µM	> 10 µM	> 10 µM	> 10 µM	0	2.5	0	0	0.2	93.8%	94.4%	97.9%	99.5%	107%	93%	108%	99.4%	82.8%	78%	96.2%	99.8%	97.2%	101%	95.5%	102%	97.9%	98%	98.3%	95.9%	96.8%	108%	96.4%	99.1%	85.8%
O=C1Nc2ccc(Cl)c3c2C1(CCCCN1CC=C(c2ccc(Cl)cc2)CC1)CCC3 (stereo not given) [DR-4485]	3.16 µM	3.27 µM	2.74 µM	1.95 µM	2.5 µM	5.5	5.4	6.2	4.6	6.5	105%	87.6%	103%	99.9%	1.7%	93.7%	100%	94.1%	102%	-0.2%	96.2%	97.5%	98.6%	94.7%	2.4%	100%	96.7%	92.9%	91.1%	42.5%	103%	95.3%	99.6%	92.3%	4.8%
CNC(=O)ON(C(C)=O)C(=O)NC [caracemide]	> 10 µM	> 10 µM	> 10 µM	> 10 µM	> 10 µM	0	0	0	0	0	94%	102%	111%	101%	98.3%	107%	104%	112%	93.8%	108%	94.8%	102%	99.3%	103%	106%	97.2%	96.9%	99.6%	94.7%	112%	89.6%	103%	95.8%	97.1%	99.7%

Reference: the supplement of paper PMC13380429
